Reference: paper PMC12214536 (Nature Communications, 2025)
Where two headings read alike, the source gives them in different places.

Legend:
ΔsltA CrzA:GFP = assay type: cell-based, Aspergillus fumigatus; conditions: 15 min
CrzA:GFP = assay type: cell-based, Aspergillus fumigatus; conditions: 15 min
[1] = test system: A. fumigatus h2A::mRFP strain; experiment: h2A::mRFP fluorescence, apoptosis-like cell death marker; assay type: cell-based, Aspergillus fumigatus; conditions: H2O2 10 mM, COL 10 or 20 μM, CAS 0.03 or 0.2 μg/mL, or CAS with COL; 1 h
A. fumigatus conidia = experiment: Fungicidal activity: CFU on drug-free MM after 48 h with compound + CAS; assay type: cell-based, Aspergillus fumigatus; conditions: 0.2 μg/mL CAS, then CFU on compound-free medium, n = 3
[2] = test system: A. fumigatus conidia in A549 cells; experiment: A549 human lung epithelial cells killing assay; assay type: cell-based, Aspergillus fumigatus
A. fumigatus = assay type: cell-based, Aspergillus fumigatus; conditions: 58 PKI at 20 µM alone or with COL 2.5 µM; 48 h, 37 °C
HepG2 liver cells = experiment: HepG2 cytotoxicity, Alamar blue; assay type: cell-based, human; conditions: COL 0, 20 and 40 µM + CAS 50 μg/mL; topotecan positive control; 48 h; n = 6
A. fumigatus ΔcalA = assay type: cell-based, Aspergillus fumigatus
A. fumigatus ΔcrzA = assay type: cell-based, Aspergillus fumigatus
[3] = test system: A. fumigatus (Af293) infection; assay type: in vivo, Caenorhabditis elegans
[4] = test system: A. fumigatus mito::GFP germlings; assay type: cell-based, Aspergillus fumigatus
A. fumigatus ΔsltA = assay type: cell-based, Aspergillus fumigatus
[5] = test system: A. fumigatus wild-type mycelia; assay type: cell-based, Aspergillus fumigatus; conditions: n = 9
A. fumigatus ΔsltA ΔcrzA = assay type: cell-based, Aspergillus fumigatus
[6] = test system: A. fumigatus wild-type (p)agsA::mluc; assay type: cell-based, Aspergillus fumigatus; conditions: CAS 0.05 and 0.125 µg/mL; COL 50 and 80 µM; or combination; 16 h at 35 °C
SltA = assay type: cell-based, Aspergillus fumigatus

Compound: [Ca+2].[Cl-].[Cl-] [CaCl2]
- increase of CrzA:GFP localization to the nucleus (ΔsltA CrzA:GFP): about 4 fold
- increase of CrzA:GFP translocation to the nucleus (CrzA:GFP): about 4 fold

Compound: OO [H2O2]
- mRFP fluorescence of h2A::mRFP germlings [1]: complete loss of red fluorescence

Compound: COC(=O)C1=C(C)NC(C)=C(C(=O)OC(C)(C)CN(C)CCC(c2ccccc2)c2ccccc2)C1c1cccc([N+](=O)[O-])c1 (centres unmarked) [LER, lercanidipine]
- lowest concentration with 100% fungicidal effect combined with CAS (A. fumigatus conidia): 3.95 µg/mL

Compound: C[C@@H](c1ncncc1F)[C@](O)(Cn1cncn1)c1ccc(F)cc1F [VOR, voriconazole]
- A. fumigatus conidial killing ([2]; VOR 0.5 μg/mL, COL 20 and 40 μM, CAS 50 μg/mL, or COL + CAS, MOI 1:10, 24 h, n = 6): 85%

Compound: Cn1cc(C2=C(c3cn(C4CCN(Cc5ccccn5)CC4)c4ccccc34)C(=O)NC2=O)c2ccccc21 [enzaustarin, enzastaurin]
- potentiation of COL activity (metabolic activity) (A. fumigatus): potentiated COL activity

Compound: CC[C@@]1(O)C(=O)OCc2c1cc1n(c2=O)Cc2cc3c(CN(C)C)c(O)ccc3nc2-1 [topotecan]
- toxicity to HepG2 cells (cell viability, Alamar blue) (HepG2 liver cells): very high toxicity

Compound: caspofungin
- growth of ΔcalA compared to wild-type (A. fumigatus ΔcalA): significantly better growth
- growth of ΔcrzA compared to wild-type (A. fumigatus ΔcrzA): significantly better growth
- survival of infected animals over 3 days ([3]; 25 °C): significantly improved survival
- germlings with mitochondrial fragmentation [4]: 35%
- mRFP fluorescence of h2A::mRFP germlings [1]: no differences in mRFP fluorescence
- growth of ΔsltA compared with the wild-type strain (A. fumigatus ΔsltA): comparable growth with the wild-type
- reduction of total ATP compared with the control [5]: about 25%

Compound: colistin
- A. fumigatus conidial killing, COL alone vs combination ([2]; COL 80 µM vs COL 80 µM + CAS 50 µg/mL): same level of conidial killing than the combination of COL 80 µM + CAS 50 µg/mL
- sensitivity of ΔsltA ΔcrzA compared with ΔsltA (A. fumigatus ΔsltA ΔcrzA): as sensitive to COL and COL with CAS as ΔsltA alone
- survival of infected animals over 3 days ([3]; in vivo): no impact on C. elegans survival
- germlings with mitochondrial fragmentation [4]: 20%
- luminescence readings compared with no compound controls [6]: about 2 fold
- mRFP fluorescence of h2A::mRFP germlings [1]: no differences in mRFP fluorescence
- lowest concentration with 100% fungicidal effect combined with CAS (A. fumigatus conidia): 10 µM
- increase of CrzA:GFP translocation to the nucleus (CrzA:GFP): about 4 fold
- effect of Ca2+ addition on ΔsltA growth in the presence of COL (A. fumigatus ΔsltA): rescue ΔsltA growth
- growth of ΔsltA compared with the wild-type strain (A. fumigatus ΔsltA): significantly more sensitive to COL
- increased expression of SltA compared to non-exposure (SltA): about 4 fold
- reduction of total ATP compared with the control [5]: about 25%
